Structures can show the parent of a compound that is named as a salt.
Assays:
Candida albicans 5314 = test: MIC, micro-bouillon-dilution method; assay type: cell-based; conditions: Candida albicans 5314, 18 hours at 37° C.
From the text: (§1) Examination of the Inhibitory Effect Through Determining of the Minimal Inhibitory Concentration (MIC) in the Micro-Bouillon-Dilution Methods
(§2) In this method, a series of dilutions with decreasing concentrations of drug is produced in 96-well-microtiter plates from a stock solution of the compound. The drug-containing microtiter plate-wells are inoculated with a defined amount of the pathogen to be tested, and cultivated. The concentration of the compound in the well, where no more turbidity of the medium due to a growth of the pathogens could be optically detected is given as the MIC.
(§3) The test strains were inoculated in Luria-Bertani-medium, and grown over night in a shaking incubator at 37° C. until stationary growth phase. On the following day, the culture was diluted 1:100 with fresh Müller-Hinton-bouillon (MH-Medium) containing 5% NaCl (w/v), and until logarithmic growth phase incubated again at 37° C. inkubiert. The optical density of the bacterial suspension was photometrically measured at 550 nm, and the suspension adjusted at 2×10^5 colony forming units/ml (CFU/ml). In the meantime, a geometric series of dilutions of the test compounds was produced in MH-medium. 100 μl of each dilution were pipetted into the corresponding wells of a 96-well-polystyrene-flat bottom-microtiter plate. The plates were inoculated with 100 μl of the pre-prepared inoculum, and cultured in the incubator for 18 hours at 37° C. On the following day, the optical density of the bacterial cultures in the wells was determined with an ELISA-reader at a wavelength of 550 nm, compared to the blank value (=non-inoculated MH-medium). The concentrations of the compound in the last wells, wherein no more growth of the pathogens could be detected, is given as the MIC. A low MIC indicates a high inhibitory activity of a compound, whereas a high concentration indicates a low activity.
(§4) The MIC of, for example, A was tested for the following germs and strains: • Staphylococcus aureus 325: Biofilm-positive clinical isolate from blood culture, wild type • Staphylococcus aureus NCTC 8325: Biofilm-negative reference strain, genome published • Staphylococcus epidermidis RP62A: Biofilm-positive, multi resistant reference strain • Escherichia coli 536: urinary tract isolate, reference strain • Pseudomonas aeruginosa: environmental isolate • Candida albicans 5314: clinical isolate

Escherichia coli 536 = test: MIC, micro-bouillon-dilution method; assay type: cell-based; conditions: Escherichia coli 536, 18 hours at 37° C.
From the text: as §1, §2, §3, §4

Pseudomonas aeruginosa = test: MIC, micro-bouillon-dilution method; assay type: cell-based
From the text: as §1, §2, §3, §4

[1] = system: Staphylococcus aureus 325; test: MIC, micro-bouillon-dilution method; assay type: cell-based; conditions: Staphylococcus aureus 325, 18 hours at 37° C.
From the text: as §1, §2, §3, §4

[2] = system: Staphylococcus aureus NCTC 8325; test: MIC, micro-bouillon-dilution method; assay type: cell-based; conditions: Staphylococcus aureus NCTC 8325, 18 hours at 37° C.
From the text: as §1, §2, §3, §4

[3] = system: Staphylococcus epidermidis RP62A; test: MIC, micro-bouillon-dilution method; assay type: cell-based; conditions: 18 hours at 37° C.
From the text: as §1, §2, §3, §4

[4] = system: 293 kidney epithelial cells; test: Cytotoxicity by the Alamar-Blue assay; assay type: cell-based
Procedure: Determination of the Cytotoxicity by the Alamar-Blue®-Assay with the Example of Substance A
The cytotoxicity of A was determined by means of an Alamar-Blue®-assay. First, a geometric series of dilutions of A in cellular medium (293 kidney epithelial cells; without phenol red) with 1% DMSO was produced, and in a 96-well-polystyrol-flat bottom-microtiter plate vorgelegt. The cells were trypsinized, and washed once. For the test, a cellular suspension of 10^5 cells/ml was prepared, and 20 μl thereof were pipetted into the wells. The final volume was 200 μl. After 24 h incubation at 37° C. and 5% CO2, 20 μl Alamar Blue (Trinova Biochem, Gieβen, Germany) was added into each well, and the microtiter plate was incubated further. The wells that contained the medium and substance, as well as those that only contained cellular suspension (without substance), served as negative or positive control, respectively. The optical density was measured after 24 h and 48 h with an ELISA-reader at the wavelengths 550 nm and 630 nm. The IC50 value for A was calculated following linear interpolation (W. Huber, J. C. Koella Acta Tropica 1993, 55, 257-261).

S. epidermidis RP62A = test: Biofilm test on polystyrene surfaces (crystal violet); assay type: cell-based, Staphylococcus epidermidis; conditions: drug concentration of 0.63 μM
Procedure: Determination of the Formation of Biofilms of Staphylococci on Polystyrene-Surfaces (Biofilm Test)
For determining the effect of a test compound on the formation of biofilms of staphylococci, the biofilm-reference strain S. epidermidis RP62A is inoculated in trypticase-soy-broth (TSB) with a common 0.25% (w/v) glucose concentration (standard-TSB), and grown over night at 37° C. in a shaking incubator until the stationary growth phase. On the next day, the cultures are diluted 1:100 with fresh TSB, and 100 μl of this germ suspension are pipetted into the wells of a 96-well-polystyrol-tissue culture plate with flat bottom (Greiner, Nürtingen, Germany). In the meantime, also a geometric series of dilutions of the test substance is produced in TSB, and also 100 μl of each of these dilutions are added to the den germ suspensions. The plates were incubated at 37° C. in an incubator for 18 hours at 37° C. On the next day, first the growth of the cultures is checked through determining of the optical density at 550 nm by means of an ELISA-reader (see also at MIC-determination), and documented. Then, the cultures are carefully poured out of the wells, and the plates were washed three times with phosphate-buffered saline solution (PBS), in order to remove non-adherent bacteria. […] After drying, the density of the adherent biofilm is determined with an ELISA-reader at a wavelength of 490 nm.

COc1cc(OC)c2c(C)[n+](-c3ccc(-c4ccc(-[n+]5c(C)cc6cc(OC)cc(OC)c6c5C)cc4)cc3)c(C)cc2c1 [A, N,N′-(1,1′-benzidine)-di-(6,8-dimethoxy-1,3-dimethylisoquinolinium)-salt]
Minimal inhibitory concentrations (Candida albicans 5314): 1.25 µM
Minimal inhibitory concentrations (Escherichia coli 536): 20.00 µM
Minimal inhibitory concentrations (Pseudomonas aeruginosa; Pseudomonas aeruginosa, 18 hours at 37° C.): >160 µM
growth-inhibiting effect (Pseudomonas aeruginosa; pseudomonades, result in words): fully ineffective
Minimal inhibitory concentrations [1]: 0.63 µM
Minimal inhibitory concentrations [2]: 5.00 µM
Minimal inhibitory concentrations [3]: 0.63 µM
IC50 [4]: 42.4 µM
reduction of the formation of biofilms compared to a control without the substance (S. epidermidis RP62A): about 90%

— patent publication US8173673B2, “Biofilm-inhibiting effect and anti-infective activity of N,C-linked aryl isoquinolines and the use thereof” (Julius-Maximilians-Universitaet Wuerzburg, priority 2006, dated 2012)
